What was measured:
[1] = system: BCR-induced secretion of CCL3 and CCL4 by CLL cells; assay: BCR-induced (anti-IgM) secretion of chemokines CCL3 and CCL4 by CLL cells, ELISA of supernatants; format: cell-based; settings: medium with anti-IgM plus compound, 24 hours, anti-IgM alone raised levels roughly 5 to 6 fold
[2] = system: CCL17, CCL22, CXCL13 and TNF-alpha levels in MCL patients; assay: Plasma chemokine and TNF-alpha levels and tumor size in MCL patients, pre-treatment vs Day 28; format: in vivo, human
Procedure: (§1) 103 patients were enrolled in the study, including 40 with MCL and 63 with iNHL. Among patients with iNHL, all 4 subtypes were represented. Patients were heavily treated with chemoimmunotherapy. Patients had received a median of 4 prior regimens and some had received as many as 14 prior regimens. Most patients had received several types of chemoimmunotherapy for NHL. Disease was commonly refractory to available therapies.
(§2) Patients were treated over a broad range of doses of Compound A using once-per-day (QD) and twice-per-day (BID) continuous and intermittent schedules. Patients remained on therapy for protracted periods; many patients with iNHL continued on treatment beyond 12 cycles (48 weeks).
(§3) Prior to treatment, the concentration of CCL17, CCL22, CXCL13, and TNF-alpha was evaluated. On the last day of the cycle, the plasma concentration of the chemokines and TNF-alpha was re-assessed. Table 3 (for MCL) and Table 4 (for iNHL) below summarize the chemokine and TNF-alpha concentration at the baseline and at Day 28 of the cycle.

[3] = target: T1, PI3Kγ (Mus musculus, UniProt Q9JHG7); assay: Isoform specific cell-based assay: C5a induced pAKT in monocyte cell line (RAW-264); settings: n = 11
T1 construct: endogenous in cells; host or cells: RAW-264 monocyte cell line
Procedure: (§4) Swiss-3T3 fibroblasts and RAW-264 were seeded on a 96-well tissue culture plate and allowed to reach at least 90% confluency. […] Akt phosphorylation and total AKT was detected by ELISA. Purified B-cells were treated with either vehicle or serial dilutions of compound I for 30 minutes at room temperature before the addition of purified goat anti-human IgM. Results are expressed as relative [^3H] thymidine incorporation induced by IgM crosslinking.

[4] = system: CCL3, CCL17 and TNF-alpha in CLL patients; assay: Clinical evaluation in CLL patients: change in plasma CCL3, CCL17 and TNF-alpha compared to decrease in lymph node size; format: in vivo, human; settings: responders = lymph node decreases of 50% or greater, FIG. 10
Procedure: The concentration of CCL3, CCL17 and TNF-alpha were determined in the plasma samples by a bead-based ELISA technology. The resulting plasma concentrations of these factors were compared to decrease in lymph node size. Patients that had lymph node decreases of 50% or greater were designated as “responders” to the drug.

[5] = system: CCL3, CCL4 and CXCL13 chemokine levels in CLL patients; assay: Plasma chemokine levels in CLL patients before and after one 28-day cycle of treatment (multiplexed bead suspension arrays); format: in vivo, human
Procedure: Plasma was stored at −70 degrees centigrade. Before analysis, samples were thawed overnight at 4 degrees centigrade and centrifuged at 1,500×g to remove debris. Chemokines were analyzed with commercially available multiplexed bead suspension arrays (MBA, Millipore). MBAs were analyzed using a Luminex 200 instrument and data was organized and analyzed using 3.1 xPONENT software. The plasma concentration of 14 patients with CLL was assessed at pre-dose baseline concentrations. The average plasma concentration of CCL3 (186 pg/mL) and CCL4 (303 pg/mL) at the pre-dose baseline are approximately 5 times higher in these subject compared to normal subjects. The average plasma concentration of CXCL13 (316 pg/mL) at pre-dose baseline was approximately 10 times higher than normal subjects. […] In the first week of dosing across all dose levels evaluated, the concentration of CCL3, CCL4 and CXCL13 were decreased by 2 to 5-fold. On the last day of the cycle, the plasma concentration of the chemokines was reassessed, see FIG. 1.

[6] = system: CCL17, CCL22, CXCL13 and TNF-alpha levels in iNHL patients; assay: Plasma chemokine and TNF-alpha levels and tumor size in iNHL patients, pre-treatment vs Day 28; format: in vivo, human
Procedure: as §1, §2, §3

[7] = target: PI3Kalpha (Mus musculus, UniProt P42337); assay: Isoform specific cell-based assay: PDGF induced pAKT in fibroblast cell line (Swiss-3T3); settings: n = 12
Procedure: as §4

Chain of PI3Kalpha (P42337 whole entry, canonical isoform): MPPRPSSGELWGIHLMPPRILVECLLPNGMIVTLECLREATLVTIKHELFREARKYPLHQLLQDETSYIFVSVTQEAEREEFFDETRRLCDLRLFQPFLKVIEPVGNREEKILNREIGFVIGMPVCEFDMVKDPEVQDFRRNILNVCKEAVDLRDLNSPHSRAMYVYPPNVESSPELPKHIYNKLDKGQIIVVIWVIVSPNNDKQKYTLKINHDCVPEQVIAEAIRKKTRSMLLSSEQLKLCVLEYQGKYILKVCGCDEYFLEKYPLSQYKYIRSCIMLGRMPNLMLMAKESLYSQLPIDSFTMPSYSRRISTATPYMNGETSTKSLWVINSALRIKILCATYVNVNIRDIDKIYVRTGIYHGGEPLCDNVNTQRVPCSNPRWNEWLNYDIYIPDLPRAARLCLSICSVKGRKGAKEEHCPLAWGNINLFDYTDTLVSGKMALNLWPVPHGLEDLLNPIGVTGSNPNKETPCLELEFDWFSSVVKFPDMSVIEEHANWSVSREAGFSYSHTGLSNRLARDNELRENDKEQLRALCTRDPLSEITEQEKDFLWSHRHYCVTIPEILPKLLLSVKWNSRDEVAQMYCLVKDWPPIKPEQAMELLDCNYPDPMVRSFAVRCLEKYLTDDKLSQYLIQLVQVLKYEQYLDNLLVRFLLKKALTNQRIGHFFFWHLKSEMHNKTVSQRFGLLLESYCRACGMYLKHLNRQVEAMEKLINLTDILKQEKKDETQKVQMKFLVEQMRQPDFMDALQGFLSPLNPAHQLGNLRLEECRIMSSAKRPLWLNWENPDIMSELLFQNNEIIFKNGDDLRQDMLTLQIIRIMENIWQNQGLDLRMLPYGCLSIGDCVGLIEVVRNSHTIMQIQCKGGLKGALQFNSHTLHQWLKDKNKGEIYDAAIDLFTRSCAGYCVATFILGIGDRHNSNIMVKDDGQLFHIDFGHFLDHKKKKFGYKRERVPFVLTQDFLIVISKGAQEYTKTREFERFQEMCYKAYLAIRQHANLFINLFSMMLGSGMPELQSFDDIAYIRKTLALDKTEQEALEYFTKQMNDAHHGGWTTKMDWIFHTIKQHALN
Chain of PI3Kalpha (P26450 whole entry partner, canonical isoform): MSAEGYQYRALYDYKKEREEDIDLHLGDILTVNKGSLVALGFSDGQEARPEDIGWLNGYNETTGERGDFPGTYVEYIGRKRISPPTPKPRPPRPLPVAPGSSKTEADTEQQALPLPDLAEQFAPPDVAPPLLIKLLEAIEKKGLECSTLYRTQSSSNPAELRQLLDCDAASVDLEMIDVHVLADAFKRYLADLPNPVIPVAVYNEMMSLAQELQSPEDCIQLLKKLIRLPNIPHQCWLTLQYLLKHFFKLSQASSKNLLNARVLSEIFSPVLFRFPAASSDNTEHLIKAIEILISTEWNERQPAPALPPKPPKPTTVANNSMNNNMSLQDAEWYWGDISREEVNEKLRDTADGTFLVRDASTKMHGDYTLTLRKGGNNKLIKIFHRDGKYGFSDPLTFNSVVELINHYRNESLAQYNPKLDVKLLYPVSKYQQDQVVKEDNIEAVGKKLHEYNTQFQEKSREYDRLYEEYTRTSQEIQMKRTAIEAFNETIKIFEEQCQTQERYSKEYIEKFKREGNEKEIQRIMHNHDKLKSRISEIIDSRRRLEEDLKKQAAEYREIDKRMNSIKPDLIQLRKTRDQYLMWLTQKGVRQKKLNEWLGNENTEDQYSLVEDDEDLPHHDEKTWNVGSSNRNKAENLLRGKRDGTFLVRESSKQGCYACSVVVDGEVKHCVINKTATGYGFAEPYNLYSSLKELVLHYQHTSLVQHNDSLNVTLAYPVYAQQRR
T1 sequence (Q9JHG7 whole entry, canonical isoform): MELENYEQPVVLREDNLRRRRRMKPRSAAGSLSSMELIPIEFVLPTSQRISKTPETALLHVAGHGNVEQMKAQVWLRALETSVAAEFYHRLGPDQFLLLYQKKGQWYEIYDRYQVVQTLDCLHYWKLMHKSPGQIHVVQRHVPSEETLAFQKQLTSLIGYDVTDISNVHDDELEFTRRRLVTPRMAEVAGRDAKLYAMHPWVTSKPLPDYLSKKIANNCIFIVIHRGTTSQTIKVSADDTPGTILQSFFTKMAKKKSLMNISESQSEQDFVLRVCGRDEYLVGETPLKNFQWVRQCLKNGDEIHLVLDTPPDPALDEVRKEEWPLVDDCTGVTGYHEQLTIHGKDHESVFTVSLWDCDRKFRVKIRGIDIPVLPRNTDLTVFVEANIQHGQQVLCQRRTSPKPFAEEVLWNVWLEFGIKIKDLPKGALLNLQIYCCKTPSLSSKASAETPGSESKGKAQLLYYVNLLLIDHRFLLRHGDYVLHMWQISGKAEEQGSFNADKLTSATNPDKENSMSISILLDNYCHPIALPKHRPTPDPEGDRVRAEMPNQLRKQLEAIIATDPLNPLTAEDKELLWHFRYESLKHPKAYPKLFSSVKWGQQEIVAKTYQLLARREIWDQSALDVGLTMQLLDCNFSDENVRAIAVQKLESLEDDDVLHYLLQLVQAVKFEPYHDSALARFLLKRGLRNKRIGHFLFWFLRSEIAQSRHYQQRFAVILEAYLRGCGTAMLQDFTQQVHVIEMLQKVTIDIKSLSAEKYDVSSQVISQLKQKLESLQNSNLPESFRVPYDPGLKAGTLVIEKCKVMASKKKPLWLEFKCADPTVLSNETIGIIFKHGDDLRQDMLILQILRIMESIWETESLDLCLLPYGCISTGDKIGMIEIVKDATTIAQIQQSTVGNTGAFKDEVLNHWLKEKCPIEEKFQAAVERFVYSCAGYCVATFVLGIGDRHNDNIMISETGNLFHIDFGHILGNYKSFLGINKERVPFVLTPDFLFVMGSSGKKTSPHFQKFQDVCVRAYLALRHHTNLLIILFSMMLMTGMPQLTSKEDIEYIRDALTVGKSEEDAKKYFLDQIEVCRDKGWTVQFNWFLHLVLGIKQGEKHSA
T1 sequence (Q5SW28 whole entry partner, canonical isoform): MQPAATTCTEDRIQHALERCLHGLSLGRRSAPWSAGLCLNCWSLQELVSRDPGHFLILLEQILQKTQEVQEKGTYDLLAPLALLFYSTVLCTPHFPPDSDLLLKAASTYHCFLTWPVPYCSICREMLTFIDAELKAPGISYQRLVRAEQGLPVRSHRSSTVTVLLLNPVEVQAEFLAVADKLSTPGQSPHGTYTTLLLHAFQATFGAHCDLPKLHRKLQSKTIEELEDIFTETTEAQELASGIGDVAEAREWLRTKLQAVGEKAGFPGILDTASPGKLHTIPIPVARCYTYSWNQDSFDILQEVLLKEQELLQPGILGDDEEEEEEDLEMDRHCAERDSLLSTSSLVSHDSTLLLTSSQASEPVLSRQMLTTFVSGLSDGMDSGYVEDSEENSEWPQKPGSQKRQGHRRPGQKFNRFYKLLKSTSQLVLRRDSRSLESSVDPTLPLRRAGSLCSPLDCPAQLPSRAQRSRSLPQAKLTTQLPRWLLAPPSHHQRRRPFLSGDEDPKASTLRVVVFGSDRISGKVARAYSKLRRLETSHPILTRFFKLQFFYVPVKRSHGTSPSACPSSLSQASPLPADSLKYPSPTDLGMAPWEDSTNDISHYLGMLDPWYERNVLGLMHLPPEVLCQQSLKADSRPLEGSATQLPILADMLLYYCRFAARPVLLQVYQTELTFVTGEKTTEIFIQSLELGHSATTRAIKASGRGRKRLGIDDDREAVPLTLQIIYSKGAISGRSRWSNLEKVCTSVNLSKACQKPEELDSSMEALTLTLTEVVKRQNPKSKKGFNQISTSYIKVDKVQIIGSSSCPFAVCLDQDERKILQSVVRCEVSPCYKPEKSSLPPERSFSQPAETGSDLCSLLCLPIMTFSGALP

CC[C@H](Nc1ncnc2[nH]cnc12)c1nc2cccc(F)c2c(=O)n1-c1ccccc1 [Compound A, (S)-2-(1-(9H-purin-6-ylamino)propyl)-5-fluoro-3-phenylquinazolin-4(3H)-one]
CCL3 and CCL4 secretion by anti-IgM stimulated CLL cells [1]: effective suppression of chemokine secretion to levels nearing the control values
TNF-alpha plasma concentration ([2]; Day 28 (pre-treatment 65)): 37 pg/mL
CCL17 plasma concentration ([2]; Day 28 (pre-treatment 194)): 60 pg/mL
CXCL13 plasma concentration ([2]; Day 28 (pre-treatment 437)): 227 pg/mL
CCL22 plasma concentration ([2]; Day 28 (pre-treatment 2593)): 1286 pg/mL
% reduction of CCL17 ([2]; Day 28 vs pre-treatment): 69%
% reduction of CCL22 ([2]; Day 28 vs pre-treatment): 50%
% reduction of CXCL13 ([2]; Day 28 vs pre-treatment): 48%
% reduction of TNF-alpha ([2]; Day 28 vs pre-treatment): 43%
clinical activity (tumor size) ([2]; FIG. 4a): reduction in tumor size
EC50 [3]: 3.89 µM
change from predose to Day 28 of CCL3, CCL17 and TNF-alpha, responders vs non-responders [4]: significantly greater for individuals that responded to the drug than those that did not
clinical activity (lymphadenopathy) ([5]; 50 to 350 mg BID, 28-day dosing period): decrease in lymphadenopathy
CCL3 plasma concentration ([5]; Day 28 of cycle 1, 50 to 350 mg BID, average (baseline 186)): 29 pg/mL
CCL4 plasma concentration ([5]; Day 28 of cycle 1, 50 to 350 mg BID, average (baseline 303)): 70 pg/mL
CXCL13 plasma concentration ([5]; Day 28 of cycle 1, 50 to 350 mg BID, average (baseline 316)): 40 pg/mL
% reduction of CCL3 ([5]; Day 28 vs baseline): 84%
% reduction of CCL4 ([5]; Day 28 vs baseline): 77%
% reduction of CXCL13 ([5]; Day 28 vs baseline): 87%
decrease of the concentration of CCL3, CCL4 and CXCL13 ([5]; first week of dosing, across all dose levels evaluated (50 to 350 mg BID)): 2 to 5 fold
TNF-alpha plasma concentration ([6]; Day 28 (pre-treatment 41)): 19 pg/mL
CCL17 plasma concentration ([6]; Day 28 (pre-treatment 234)): 88 pg/mL
CXCL13 plasma concentration ([6]; Day 28 (pre-treatment 470)): 161 pg/mL
CCL22 plasma concentration ([6]; Day 28 (pre-treatment 2602)): 1166 pg/mL
% reduction of CCL17 ([6]; Day 28 vs pre-treatment): 62%
% reduction of CCL22 ([6]; Day 28 vs pre-treatment): 55%
% reduction of CXCL13 ([6]; Day 28 vs pre-treatment): 66%
% reduction of TNF-alpha ([6]; Day 28 vs pre-treatment): 54%
clinical activity (tumor size) ([6]; FIG. 4b): reduction in tumor size
EC50 [7]: > 20 µM
